According to patent US9234186B2, “Star-worm luciferase” (OLYMPUS CORPORATION, priority 2011, dated 2016):

Target: GL3 luciferase derived from P. pyralis (Photinus pyralis, UniProt P08659, K549A/L550V/N119G/N50D/S548I)
Assay type: biochemical
Details: read-out: Km for ATP; 0.1 M Tris-HCl pH 8.0; enzyme solution with 1 mM D-luciferin, 8 mM MgSO4

GL3 luciferase derived from P. pyralis, sequence (P08659 whole entry N50D/N119G/S548I/K549A/L550V): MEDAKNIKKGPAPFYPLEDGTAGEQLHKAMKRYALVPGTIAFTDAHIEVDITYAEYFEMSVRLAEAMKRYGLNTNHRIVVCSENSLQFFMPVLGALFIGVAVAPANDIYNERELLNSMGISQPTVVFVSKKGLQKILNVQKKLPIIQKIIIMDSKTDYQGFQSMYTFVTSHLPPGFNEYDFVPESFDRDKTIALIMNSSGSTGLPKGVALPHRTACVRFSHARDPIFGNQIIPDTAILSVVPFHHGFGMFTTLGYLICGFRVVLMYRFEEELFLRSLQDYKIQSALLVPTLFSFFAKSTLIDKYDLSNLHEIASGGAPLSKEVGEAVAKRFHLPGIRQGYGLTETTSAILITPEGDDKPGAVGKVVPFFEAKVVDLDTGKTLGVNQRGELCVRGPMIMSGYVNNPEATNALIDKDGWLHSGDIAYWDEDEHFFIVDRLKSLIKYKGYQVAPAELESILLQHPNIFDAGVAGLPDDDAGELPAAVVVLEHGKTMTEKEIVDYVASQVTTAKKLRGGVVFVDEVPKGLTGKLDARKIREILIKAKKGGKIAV

`Nc1ncnc2c1ncn2[C@@H]1O[C@H](COP(=O)(O)OP(=O)(O)OP(=O)(O)O)[C@@H](O)[C@H]1O` [ATP, Adenosine triphosphate] gave a Km of 64.3 µM.
